Data taken from PubChem BioAssay (NCI).
Values joined by “and” are separate entries in the source; they are usually repeats but may differ in a detail not shown here. Identical values can stand only once.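 Method: 48-hour compound exposure of cells in 96-well plates, five concentrations, linear interpolation of endpoints. GI50 is the concentration that inhibits growth by half. TGI marks complete inhibition of growth.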

Key:
Assay in all cases: NCI tumour cell line growth inhibition, 48 h
NCI-H460 lung = tested on: NCI-H460 lung
NCI-H226 lung = tested on: NCI-H226 lung
M14 melanoma = tested on: M14 melanoma
SK-MEL-28 melanoma = tested on: SK-MEL-28 melanoma
MALME-3M melanoma = tested on: MALME-3M melanoma
HL-60(TB) leukemia = tested on: HL-60(TB) leukemia
U251 CNS = tested on: U251 CNS
SK-MEL-2 melanoma = tested on: SK-MEL-2 melanoma
RXF 393 renal = tested on: RXF 393 renal
RPMI-8226 leukemia = tested on: RPMI-8226 leukemia

Compound | GI50 (NCI-H460 lung) | TGI (NCI-H460 lung) | GI50 (NCI-H226 lung) | TGI (NCI-H226 lung) | GI50 (M14 melanoma) | TGI (M14 melanoma) | GI50 (SK-MEL-28 melanoma) | TGI (SK-MEL-28 melanoma) | GI50 (MALME-3M melanoma) | TGI (MALME-3M melanoma) | GI50 (HL-60(TB) leukemia) | TGI (HL-60(TB) leukemia) | GI50 (U251 CNS) | TGI (U251 CNS) | GI50 (SK-MEL-2 melanoma) | TGI (SK-MEL-2 melanoma) | GI50 (RXF 393 renal) | TGI (RXF 393 renal) | GI50 (RPMI-8226 leukemia) | TGI (RPMI-8226 leukemia)
CC(=O)OCC(=O)O[C@@H]1C[C@]2(C(C)C)O[C@@]1(C)[C@@H]1CC[C@@H](C)[C@H]1[C@@H]2OC(=O)/C=C/c1ccccc1 | 21.4 µM | 60.1 µM | 10.6 µM | 37.1 µM | 26.3 µM | > 100 µM | 22.3 µM | 83.4 µM | 20.7 µM | 88.8 µM | 15 µM | 62 µM | 16.7 µM | 50.3 µM | 17.3 µM | 39.1 µM | 0.211 µM | 2.01 µM | 18.8 µM | > 100 µM
CN(N=O)C(=O)N[C@@H](C=O)[C@@H](O)[C@H](O)[C@H](O)CO | > 750 µM | > 750 µM | > 750 µM | > 750 µM | – | > 750 µM | > 750 µM | > 750 µM | > 750 µM | 657 µM and > 750 µM | > 750 µM | > 750 µM | > 750 µM | 626 µM and > 750 µM | > 750 µM | > 750 µM | > 750 µM | > 750 µM | > 750 µM | 612 µM and > 750 µM
O=C(Nc1cccc(Oc2nnc(Cl)c3ccccc23)c1)Nc1ccc(Cl)c(C(F)(F)F)c1 | 0.898 µM | 3.44 µM | 2.14 µM | 7.2 µM | 0.707 µM | 3.16 µM | 0.933 µM | 3.54 µM | 0.968 µM | 4 µM | 0.372 µM | 6.06 µM | 1.31 µM | 3.93 µM | 0.698 µM | 3.24 µM | 1.17 µM | 3.87 µM | 0.336 µM | 1.51 µM
CC(=O)c1cc2c(cc1Nc1c3ccccc3nc3occ(Cl)c13)OCO2 | 0.27 µM | > 40.1 µM | 3.42 µM | – | 0.316 µM | 37.9 µM | 0.541 µM | > 100 µM | 0.0796 µM | 0.45 µM | 0.0647 µM | 0.57 µM | 0.35 µM | > 100 µM | – | > 100 µM | 0.193 µM | 0.523 µM | 0.0539 µM | 0.139 µM
O=C1c2ccccc2C(=O)c2c(NCCNCCO)ccc(O)c21 | – | 6.85 µM | – | 6.56 µM | – | 15.8 µM | – | 11.4 µM | – | 11.7 µM | – | 8.77 µM | – | 14.7 µM | – | 14.7 µM | – | 7.92 µM | – | 11.7 µM
Cn1cc(C2=C(c3cccnc3)C(=O)NC2=O)c2ccccc21 | > 23.1 µM | > 25 µM | 8.15 µM | > 19.2 µM | > 25 µM | > 25 µM | > 25 µM | > 25 µM | > 25 µM | > 25 µM | > 25 µM | > 25 µM | 18.8 µM | > 25 µM | > 13 µM | 25 µM | 5.63 µM | > 17.9 µM | > 25 µM | > 25 µM
Cc1c(C(=O)C/C(=N/NC(=O)C[n+]2ccccc2)C(=O)Nc2ccccc2)[n+](=O)c2ccccc2n1O | – | > 100 µM | – | > 100 µM | – | > 100 µM | – | > 100 µM | – | > 100 µM | – | > 100 µM | – | > 100 µM | – | > 100 µM | – | > 100 µM | – | > 100 µM
COc1ccc(-c2nn(-c3cccc(NC(=O)c4ccc5c(c4)OCCO5)c3)cc2-c2ccncc2)cc1Cl | 2.67 µM | 15.6 µM | 3.3 µM | > 100 µM | 1.57 µM | 4.28 µM | 1.9 µM | 11.6 µM | 0.833 µM | 6.72 µM | 2 µM | 5.96 µM | 1.18 µM | 12.7 µM | 2.36 µM | 7.15 µM | 1.23 µM | 4.52 µM | 1.36 µM | 6.65 µM
CC1CCN(CCCCCOc2ccc3oc4cc(Cl)ccc4c(=O)c3c2)CC1 | 6.63 µM | 13.9 µM | 9.42 µM | 20.2 µM | 1.15 µM | 2.63 µM | 7.07 µM | 13.7 µM | 8.41 µM | 15.3 µM | 2.81 µM | 10.5 µM | 5.69 µM | 12.4 µM | 9.3 µM | 17.5 µM | 5.75 µM | 12.7 µM | 5.73 µM | 15.9 µM
CN(C)CCOc1ccc(/C(=C(/CCCl)c2ccccc2)c2ccccc2)cc1 | 0.845 µM | – | 1.34 µM | 13.4 µM and 39.3 µM | 0.96 µM | – | 0.912 µM | – | 0.976 µM | – | 1.06 µM | 2.11 µM and 15 µM | 0.815 µM | – | 0.975 µM | – | 0.698 µM | 1.4 µM | 1.03 µM | 2.5 µM and 23.6 µM
C[C@]12CCc3nonc3C1CC[C@@H]1C2CC[C@]2(C)NC(=O)CCC12 (stereo not given in full) | – | > 100 µM | – | > 100 µM | – | > 100 µM | – | > 100 µM | – | > 100 µM | – | > 100 µM | – | > 100 µM | – | > 100 µM | – | > 100 µM | – | > 100 µM
O=P(NC12CC3CC(CC(C3)C1)C2)(N1CC1)N1CC1 | – | > 100 µM | – | > 94.8 µM | – | > 100 µM | – | > 100 µM | – | > 100 µM | – | 98.9 µM | – | > 100 µM | – | > 100 µM | – | 74.3 µM | – | > 100 µM
CN(C)c1ccc(/C=C2\N=C(c3ccc([N+](=O)[O-])cc3)OC2=O)cc1 | – | > 100 µM | – | > 100 µM | – | > 100 µM | – | > 100 µM | – | > 100 µM | – | 87.9 µM | – | > 100 µM | – | > 100 µM | – | > 100 µM | – | > 100 µM
COc1ccc2c(c1)C(=O)C(=O)c1cc(O)c(OC)c(OC)c1-2 | 1.64 µM | 9.97 µM and 3.16 µM | 1.95 µM | 14.3 µM and 3.9 µM | 1.73 µM | 1.71 µM and 3.11 µM | 1.88 µM | 1.67 µM and 3.58 µM | 1.22 µM | 1.53 µM and 2.46 µM | – | 0.681 µM | 1.78 µM | 1.64 µM and 3.16 µM | 1.95 µM | 1.62 µM and 3.42 µM | 1.56 µM | 1.65 µM and 3.63 µM | 1.56 µM | 2.67 µM and 3.81 µM
CNC(=O)c1ccc2cc(C3(O)CCn4cncc43)ccc2c1 (stereo not given) | > 100 µM | > 100 µM | > 100 µM | > 100 µM | > 100 µM | > 100 µM | > 100 µM | > 100 µM | > 100 µM | > 100 µM | > 73.5 µM | > 100 µM | > 100 µM | > 100 µM | > 100 µM | > 100 µM | > 100 µM | > 100 µM | > 100 µM | > 100 µM
CC(C)(C)c1[nH]cnc1/C=c1\[nH]c(=O)/c(=C/c2ccccc2)[nH]c1=O | < 0.01 µM | 17.7 µM | 0.0275 µM | 3.69 µM | < 0.01 µM | 17.1 µM | 10.5 µM | 28.3 µM | < 0.105 µM | 29.8 µM | < 0.01 µM | 11.1 µM | < 0.01 µM | 43.9 µM | < 0.0108 µM | 30.7 µM | < 0.01 µM | 56.8 µM | < 0.0176 µM | 13.2 µM
O=C(CF)N(O)c1ccc(/C=C/c2ccccc2)cc1 | 0.322 µM | > 100 µM | 0.77 µM | 3.24 µM | 3.82 µM | > 100 µM | > 40.4 µM | > 100 µM | 24.6 µM | > 100 µM | 0.605 µM | 13.6 µM | 1.82 µM | > 60 µM | 27.1 µM | > 100 µM | 3.13 µM | 25.1 µM | 21.3 µM | > 100 µM
CN1CCN(c2ccc3nc(-c4c(N)c5c(F)cccc5[nH]c4=O)[nH]c3c2)CC1 | 0.369 µM and 0.344 µM and 0.454 µM | 1.72 µM and 1.79 µM and 2.2 µM | 0.525 µM and 0.476 µM and 0.537 µM | 8.36 µM and > 6.97 µM and 17.6 µM | 0.41 µM and 0.34 µM and 0.445 µM | 1.71 µM and 1.54 µM and 1.93 µM | 1.51 µM and 0.801 µM and 1.43 µM | 2.96 µM and 2.79 µM and 3.02 µM | 0.901 µM and 0.498 µM and 0.547 µM | 2.46 µM and 1.75 µM and 1.97 µM | 0.86 µM and 0.314 µM and 1.2 µM | 2.8 µM and 2.36 µM and 3.12 µM | 1.02 µM and 0.652 µM and 0.78 µM | 2.45 µM and > 3.32 µM and 3.49 µM | 0.419 µM and 0.4 µM and 0.936 µM | 5.41 µM and > 2.24 µM and 22.8 µM | 0.216 µM and 0.212 µM and 0.282 µM | 1.19 µM and 0.632 µM and 1.18 µM | 1.17 µM and 0.909 µM and 1.57 µM | 3.74 µM and > 2.77 µM and 4.53 µM
COc1ccc(C(=O)C(C(=O)C(=O)Nc2ccc(Cl)c(Cl)c2)c2ccc(OC)cc2)cc1 (stereo not given) | – | > 100 µM | – | > 100 µM | – | > 100 µM | – | > 100 µM | – | > 100 µM | – | > 100 µM | – | > 100 µM | – | > 100 µM | – | > 100 µM | – | > 100 µM
Cc1noc(C)c1-c1cc(O)cc(C(O)c2ccccc2)c1 (stereo not given) | 25.1 µM | > 100 µM | 21.3 µM | > 100 µM | 4.48 µM | > 100 µM | 9.15 µM | > 100 µM | 28.9 µM | > 100 µM | 2.17 µM | 22.7 µM | 15 µM | > 100 µM | 23.5 µM | > 100 µM | 4.58 µM | > 100 µM | 1.94 µM | 9.64 µM
O=C(c1ccco1)c1nc2cc(F)ccc2[n+]([O-])c1C(F)(F)F | 41.8 µM | > 100 µM | 99.1 µM | > 100 µM | 17.6 µM | 38.7 µM | 29.4 µM | 95.4 µM | 17.4 µM | 33.9 µM | 18.4 µM | 49.2 µM | 35.5 µM | > 100 µM | 20.8 µM | 50.3 µM | 19.2 µM | 52.7 µM | 35.8 µM | > 100 µM
N#Cc1ccc(N2Cc3ccccc3OC3=C2C(=O)c2c(O)ccc(O)c2C3=O)cc1 | 0.897 µM | 4.23 µM | 0.282 µM | 1.13 µM | 0.209 µM | 0.496 µM | 0.216 µM | 0.62 µM | 0.0837 µM | 0.264 µM | 0.13 µM | 0.821 µM | 0.514 µM | 1.71 µM | 1.01 µM | 3.8 µM | 0.157 µM | 0.313 µM | 0.261 µM | 1.31 µM
